# System: 379773-124-R-J2-PDC spheroid viability
# Assay: Anticancer human tumor 379773-124-R-J2-PDC patient-derived endometrial carcinoma cell line growth inhibition [POLQ]
# Settings: spheroids with HUVEC and MSC; for IC50: curve of first compound; for viability, T/C: stronger effect = lower value
# Summary of the method: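 PDC + HUVEC + MSC complex spheroids; POLQ inhibitors ± partner drugs; top conc. at/near clinical Cmax, else 10 microM (SN-38 1 microM), half-log dilutions; 37 degrees C, 5% CO2.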
# [1] = second compound 0.0316 µM, first compound 0.00316 µM
# [2] = second compound 0.0316 µM, first compound 0.01 µM
# [3] = second compound 0.0316 µM, first compound 0.0316 µM
# [4] = second compound 0.0316 µM, first compound 0.1 µM
# [5] = second compound 0.0316 µM, first compound 0.316 µM
# [6] = second compound 0.0316 µM, first compound 1 µM
# [7] = second compound 0.1 µM, first compound 0.00316 µM
# [8] = second compound 0.1 µM, first compound 0.01 µM
# [9] = second compound 0.1 µM, first compound 0.0316 µM
# [10] = second compound 0.1 µM, first compound 0.1 µM
# [11] = second compound 0.1 µM, first compound 0.316 µM
# [12] = second compound 0.1 µM, first compound 1 µM
# [13] = second compound 0.316 µM, first compound 0.00316 µM
# [14] = second compound 0.316 µM, first compound 0.01 µM
# [15] = second compound 0.316 µM, first compound 0.0316 µM
# [16] = second compound 0.316 µM, first compound 0.1 µM
# [17] = second compound 0.316 µM, first compound 0.316 µM
# [18] = second compound 0.316 µM, first compound 1 µM
# [19] = second compound 1 µM, first compound 0.00316 µM
# [20] = second compound 1 µM, first compound 0.01 µM
# [21] = second compound 1 µM, first compound 0.0316 µM
# [22] = second compound 1 µM, first compound 0.1 µM
# [23] = second compound 1 µM, first compound 0.316 µM
# [24] = second compound 1 µM, first compound 1 µM
# [25] = second compound 3.16 µM, first compound 0.00316 µM
# [26] = second compound 3.16 µM, first compound 0.01 µM
# [27] = second compound 3.16 µM, first compound 0.0316 µM
# [28] = second compound 3.16 µM, first compound 0.1 µM
# [29] = second compound 3.16 µM, first compound 0.316 µM
# [30] = second compound 3.16 µM, first compound 1 µM
# [31] = second compound 10 µM, first compound 0.00316 µM
# [32] = second compound 10 µM, first compound 0.01 µM
# [33] = second compound 10 µM, first compound 0.0316 µM
# [34] = second compound 10 µM, first compound 0.1 µM
# [35] = second compound 10 µM, first compound 0.316 µM
# [36] = second compound 10 µM, first compound 1 µM
# 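Further: spheroids exposed to drugs for seven days before readout.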
# 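Wherever viability, T/C is given: percent viability relative to DMSO vehicle control taken as 100%.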
smiles,measurement,setting,value
CCc1c2c(nc3ccc(O)cc13)-c1cc3c(c(=O)n1C2)COC(=O)[C@]3(O)CC + Cc1cccc(N(C)C(=O)C2C(O)CCN2c2nc(C)cc(C(F)(F)F)c2C#N)c1,IC50,second compound 0.0316 µM,< 3.16 nM
same,IC50,second compound 0.1 µM,< 3.16 nM
same,IC50,second compound 0.316 µM,< 3.16 nM
same,IC50,second compound 1 µM,< 3.16 nM
same,IC50,second compound 3.16 µM,< 3.16 nM
same,IC50,second compound 10 µM,< 3.16 nM
same,"viability, T/C",[1],42.3%
same,"viability, T/C",[2],11.2%
same,"viability, T/C",[3],7.22%
same,"viability, T/C",[4],2.98%
same,"viability, T/C",[5],1.21%
same,"viability, T/C",[6],0.39%
same,"viability, T/C",[7],42.5%
same,"viability, T/C",[8],11.1%
same,"viability, T/C",[9],6.54%
same,"viability, T/C",[10],3.61%
same,"viability, T/C",[11],2%
same,"viability, T/C",[12],1.94%
same,"viability, T/C",[13],50%
same,"viability, T/C",[14],10.5%
same,"viability, T/C",[15],6.39%
same,"viability, T/C",[16],2.26%
same,"viability, T/C",[17],1.38%
same,"viability, T/C",[18],0.58%
same,"viability, T/C",[19],41.5%
same,"viability, T/C",[20],12.6%
same,"viability, T/C",[21],7.38%
same,"viability, T/C",[22],2.95%
same,"viability, T/C",[23],2.13%
same,"viability, T/C",[24],0.49%
same,"viability, T/C",[25],43.7%
same,"viability, T/C",[26],14.4%
same,"viability, T/C",[27],7.52%
same,"viability, T/C",[28],3.81%
same,"viability, T/C",[29],1.74%
same,"viability, T/C",[30],0.63%
same,"viability, T/C",[31],30.8%
same,"viability, T/C",[32],13.9%
same,"viability, T/C",[33],7.18%
same,"viability, T/C",[34],3.13%
same,"viability, T/C",[35],2.07%
same,"viability, T/C",[36],1.28%
C=CCn1c(=O)c2cnc(Nc3ccc(N4CCN(C)CC4)cc3)nc2n1-c1cccc(C(C)(C)O)n1 + COC1C(OC(N)=O)C(O)C(Oc2ccc3c(O)c(NC(=O)c4ccc(O)c(CC=C(C)C)c4)c(=O)oc3c2C)OC1(C)C,IC50,second compound 0.0316 µM,453 nM
same,IC50,second compound 0.1 µM,425 nM
same,IC50,second compound 0.316 µM,354 nM
same,IC50,second compound 1 µM,487 nM
same,IC50,second compound 3.16 µM,472 nM
same,IC50,second compound 10 µM,436 nM
same,"viability, T/C",[1],84.1%
same,"viability, T/C",[2],74.3%
same,"viability, T/C",[3],89.5%
same,"viability, T/C",[4],79.7%
same,"viability, T/C",[5],71.9%
same,"viability, T/C",[6],1.84%
same,"viability, T/C",[7],82.8%
same,"viability, T/C",[8],73.7%
same,"viability, T/C",[9],85.3%
same,"viability, T/C",[10],81.7%
same,"viability, T/C",[11],66.2%
same,"viability, T/C",[12],3.04%
same,"viability, T/C",[13],87.9%
same,"viability, T/C",[14],74.8%
same,"viability, T/C",[15],88.3%
same,"viability, T/C",[16],88%
same,"viability, T/C",[17],55.3%
same,"viability, T/C",[18],2.39%
same,"viability, T/C",[19],80.6%
same,"viability, T/C",[20],89.8%
same,"viability, T/C",[21],78.3%
same,"viability, T/C",[22],88.8%
same,"viability, T/C",[23],78.2%
same,"viability, T/C",[24],2.58%
same,"viability, T/C",[25],85.6%
same,"viability, T/C",[26],86.9%
same,"viability, T/C",[27],79.6%
same,"viability, T/C",[28],77.5%
same,"viability, T/C",[29],74.8%
same,"viability, T/C",[30],3.31%
same,"viability, T/C",[31],77.5%
same,"viability, T/C",[32],66.6%
same,"viability, T/C",[33],103%
same,"viability, T/C",[34],81%
same,"viability, T/C",[35],68.6%
same,"viability, T/C",[36],2.21%
